# Assay results: paper PMC9942807, “Structure–function correlates of fibrinogen binding by Acinetobacter adhesins critical in catheter-associated urinary tract infections” (Proceedings of the National Academy of Sciences of the …, 2023)
# What was measured:
# Abp2DRBD = molecular target: T1, Abp2DRBD (Acinetobacter baumannii, UniProt A0A7U3Y091); assay: glycan microarray (CFG v5.[…]), biotinylated protein; assay type: binding; details: protein 50 μg/mL; glycan immobilised through spacer; labelled protein
# T1 construct: gene ACICU_01810
# Abp1DRBD [1] = molecular target: T2, Abp1DRBD (Acinetobacter baumannii, UniProt A0A219C937); assay: glycan microarray (CFG v5.[…]), biotinylated protein; assay type: binding; details: protein 50 μg/mL; glycan immobilised through spacer; labelled protein
# T2 construct: gene fimA_2
# [2] = molecular target: bovine submaxillary mucin (BSM); assay: BLI; details: parent: est. 0.65; read off a plot
# [3] = molecular target: bovine submaxillary mucin (BSM) (bovine); assay: BLI; biotinylated BSM loaded on streptavidin pins; Abp2DRBD constructs at 2.07 µM in 1× PBS + 2% BSA + 0.05% Tween-20; 300 s association, 300 s dissociation; end time point of association compared
# Abp1DRBD [4] = molecular target: T2, Abp1DRBD; assay: glycan microarray (CFG v5.[…]), biotinylated protein; assay type: binding; details: protein 50 μg/mL; glycan immobilised through spacer; labelled protein; remark: listed apart in the source
Substance,Abp2DRBD / Average RFU (Abp2DRBD),Abp1DRBD / Average RFU (Abp1DRBD [1]),also measured
Fuca1-2Galb1-4(Fuca1-3)GlcNAcb1-2Mana1-6(Fuca1-2Galb1-4(Fuca1-3)GlcNAcb1-2Mana1-3)Manb1-4GlcNAcb1-4GlcNAb-Sp20 [compound 356],"58,018 ± 2,343 RFU","2,867 ± 192 RFU",–
"Abp2D receptor-binding domain from ACICU (Abp2DRBD), wild type R86E",–,–,response [2]: 0.02 nm
GlcNAcb1-3Galb1-4GlcNAcb1-2Mana1-6(GlcNAcb1-3Galb1-4GlcNAcb1-2Mana1-3)Manb1-4GlcNAcb1-4GlcNAcb-Sp12 [compound 531],"59,914 ± 1,963 RFU","6,977 ± 1,001 RFU",–
"Abp2D receptor-binding domain from ACICU (Abp2DRBD), wild type R86A",–,–,response [2]: 0.66 nm
Neu5Aca2-6Galb1-4GlcNAcb1-6GalNAca-Sp14 [compound 472],"54,517 ± 1,322 RFU","4,714 ± 450 RFU",–
GlcNAcb1-3Galb1-4GlcNAcb1-3Galb1-4GlcNAcb1-2Mana1-6(GlcNAcb1-3Galb1-4GlcNAcb1-3Galb1-4GlcNAcb1-2Mana1-3)Manb1-4GlcNAcb1-4GlcNAcb-Sp12 [compound 535],"34,056 ± 4,827 RFU","4,735 ± 602 RFU",–
Abp2D receptor-binding domain (ACICU) R102A (domain or fragment),–,–,percent reduction of binding relative to Abp2DRBD WT [3]: 70%
Galb1-4(Fuca1-3)GlcNAcb1-2Mana1-6(Galb1-4(Fuca1-3)GlcNAcb1-2Mana1-3)Manb1-4GlcNAcb1-4(Fuca1-6)GlcNAcb-Sp22 [compound 412],"48,357 ± 11,791 RFU","2,932 ± 266 RFU",–
Abp2D receptor-binding domain (ACICU) Y141A (domain or fragment),–,–,percent reduction of binding relative to Abp2DRBD WT [3]: 90%
Neu5Aca2-3Galb1-4GlcNAcb1-2Mana-Sp0 [compound 470],"53,822 ± 4,116 RFU","6,747 ± 133 RFU",–
Galb1-3GlcNAcb1-3Galb1-3GlcNAcb-Sp0 [compound 285],"28,674 ± 4,137 RFU","3,392 ± 319 RFU",–
Neu5Aca2-3Galb1-4GlcNAcb1-3Galb1-4GlcNAcb1-3Galb1-4GlcNAcb1-2Mana1-6(Neu5Aca2-3Galb1-4GlcNAcb1-3Galb1-4GlcNAcb1-3Galb1-4GlcNAcb1-2Mana1-3)Manb1-4GlcNAcb1-4GlcNAcb-Sp12 [compound 582],–,–,"Abp1DRBD / SD (Abp1DRBD [4]): 9,786 ± 418 RFU"
Fuca1-2Galb1-4(Fuca1-3)GlcNAcb1-2Mana1-6(Fuca1-2Galb1-4(Fuca1-3)GlcNAcb1-4(Fuca1-2Galb1-4(Fuca1-3)GlcNAcb1-2)Mana1-3)Manb1-4GlcNAcb1-4GlcNAcb-Sp12 [compound 439],"30,667 ± 511 RFU","3,373 ± 55 RFU",–
GlcNAcb1-3Galb1-4GlcNAcb1-6(GlcNAcb1-3Galb1-4GlcNAcb1-2)Mana1-6(GlcNAcb1-3Galb1-4GlcNAcb1-2Man a1-3)Manb1-4GlcNAcb1-4GlcNAc-Sp24 [compound 545],"39,436 ± 6,368 RFU","3,159 ± 350 RFU",–
"Abp2D receptor-binding domain from ACICU (Abp2DRBD), wild type Y100A",–,–,response [2]: 0.46 nm
